Experimental data published in PubChem BioAssay (NCI).
“And” between values parts separate entries of the source, which are not always exact repeats. Equal values may be shown once.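 Following 48 hours of exposure in 96-well plates, responses at five concentrations were used to interpolate endpoints linearly. GI50 = concentration required for 50% inhibition of growth. TGI denotes the concentration required for complete inhibition of growth.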

Legend:
Assay in all cases: NCI tumour cell line growth inhibition, 48 h
RXF-631 renal = test system: RXF-631 renal
SNB-78 CNS = test system: SNB-78 CNS
DU-145 prostate = test system: DU-145 prostate
MDA-MB-435 = test system: MDA-MB-435
BT-549 breast = test system: BT-549 breast
MDA-N = test system: MDA-N
MDA-MB-231 breast = test system: MDA-MB-231 breast

Compound	TGI (RXF-631 renal)	TGI (SNB-78 CNS) [µM]	also measured
COC1(OC)CCC2C1C1CCC(OC)(OC)C21 (configuration not stated)	> 50 µM	> 50	
CCOC(=O)C1=C(C)NC(=S)NC1c1ccccc1 (configuration not stated)	> 100 µM	> 100	
O=C(/C=C/c1ccccc1)NC1C=Nc2ccc(Cl)cc2NC1=O (configuration not stated)	> 100 µM	> 100	
COC1CCC2C(NS(=O)(=O)c3ccc(C)cc3)CCCC2O1 (configuration not stated) (tested in a mixture with another compound)	> 34.5 µM	> 34.5	
CCCCC(=O)OCC(=O)[C@]1(O)Cc2c(O)c3c(c(O)c2[C@@H](OC2CC(NC(=O)C(F)(F)F)C(O)C(C)O2)C1)C(=O)c1c(OC)cccc1C3=O (some centres not stated)	6.44 µM		TGI (DU-145 prostate): 2.44 µM; TGI (MDA-MB-435): > 100 µM; TGI (BT-549 breast): 9.7 µM; TGI (MDA-N): 5.02 µM; TGI (MDA-MB-231 breast): > 100 µM
C[C@]12CC[C@H](O)CC1=CC[C@@H]1C2CC[C@]2(C)C(=O)N(N)C(=O)CC12 (some centres not stated)	> 100 µM	> 100	
CCOc1ccc(NC(=O)C(=O)CC(=O)c2c[n+](=O)c3cc(C)c(C)cc3n2[O-])cc1	> 100 µM	> 100	
O=C(N/C(=C\c1ccc(/C=C(\NC(=O)c2ccccc2)c2nc3cc([N+](=O)[O-])ccc3[nH]2)cc1)c1nc2cc([N+](=O)[O-])ccc2[nH]1)c1ccccc1	> 100 µM	> 100	
O=C1C2C(C(=O)N1OS(=O)(=O)c1ccccc1)N(Cc1ccccc1)C(=O)N2Cc1ccccc1 (configuration not stated)	> 100 µM	> 100	
CN(C)CC[N+]1=Nc2cccc3cccc(c23)N1	> 100 µM	> 100	
Cc1ccc(N=Nc2ccc(N(CCC#N)CCC#N)cc2C)c(Br)c1	81.3 µM	> 100	
Cc1cc(C)nc(NS(=O)(=O)c2ccc(NC(=O)c3ccc(Cl)c4c(Nc5ccc(S(=O)(=O)Nc6nc(C)cc(C)n6)cc5)c5ccccc5nc34)cc2)n1	> 100 µM	> 100	
O=C(CC1(O)C(=O)Nc2c(Cl)cc(Cl)cc21)c1ccc(Br)cc1Br (configuration not stated)	9.25 µM	> 74.9	TGI (DU-145 prostate): 32.3 µM; TGI (MDA-MB-435): 25.5 µM; TGI (BT-549 breast): 22.3 µM; TGI (MDA-N): 21.8 µM; TGI (MDA-MB-231 breast): 41.3 µM
COC(=O)[C@@H]1[C@H](O)[C@H](C)[C@H](O)[C@@](C)(O)/C=C\C=C(C)C(=O)Nc2c(C)c(OC(C)=O)c3c(c2O)C(=O)C(C)=C2OCOC(=C23)C(C)=C[C@@](C)(O)[C@H](O)[C@@H](C)[C@H]1OC(C)=O	> 100 µM and 66.9 µM	> 100	TGI (DU-145 prostate): > 66.9 µM; GI50 (RXF-631 renal): > 100 µM and 39.8 µM and 36.4 µM
O=S1(=O)c2ccccc2NC(c2ccc3ccccc3c2)CC1c1ccccc1F (configuration not stated)	> 100 µM		
C=C1C(=O)C23CC1CCC2C12CO[C@@H]4OCC(C)(CC[C@@H]1OC3=O)C42 (some centres not stated)	47.8 µM	9.57	
